From patent US9018395B2, “Pyrazolopyridine and pyrazolopyrimidine derivatives as melanocortin-4 receptor modulators” (Université de Montréal, priority 2011, dated 2015) come the findings set out here.

One may read the IC50 as the point on the concentration scale where inhibition reaches its midpoint. A high value points to a need for much substance.

The structures appear in SMILES notation.

For the test, the target named is T1, wild-type human melanocortin 4 receptor (WT-hMC4R) (Homo sapiens, UniProt P32245).
T1 construct: expressed in transfected cells; cDNA from UMR cDNA resource center
T1 sequence (P32245 whole entry): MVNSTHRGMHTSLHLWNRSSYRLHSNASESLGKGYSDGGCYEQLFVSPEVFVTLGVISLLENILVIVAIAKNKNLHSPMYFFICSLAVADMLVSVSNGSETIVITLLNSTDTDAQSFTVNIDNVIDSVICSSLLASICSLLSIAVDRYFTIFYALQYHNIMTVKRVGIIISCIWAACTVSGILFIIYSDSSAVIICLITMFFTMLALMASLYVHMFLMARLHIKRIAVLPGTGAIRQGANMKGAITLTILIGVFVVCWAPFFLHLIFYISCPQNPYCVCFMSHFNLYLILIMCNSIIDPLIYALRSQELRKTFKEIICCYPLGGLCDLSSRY
Briefly: Cyclic AMP assay (HTRF), antagonist competition against NDP-α-MSH. Conditions: HEK293T cells expressing double-tagged WT-hMC4R; cAMP accumulation; 1 hour compound then 4 nM NDP-α-MSH 30 min. Format: cell-based. Here is the method:
Intracellular cyclic 3′-5′ adenosine monophosphate (cAMP) accumulation was measured using a competitive immunoassay based on HTRF (Homogeneous Time-Resolved Fluorescence) technology (cAMP dynamic-2, Cis-Bio).
HEK293T stable cell line expressing double-tagged WT-hMC4R construct were collected and washed in cAMP buffer (1XD-PBS pH 7.4, 0.1% glucose). 40,000 cells/well were then dispensed in 96-well plates in cAMP buffer [1XD-PBS, 1% BSA, 0.1% Glucose, 0.75 mM 3-isobutyl-1methyl-xanthine (IBMX, Sigma)] and incubated either for antagonist competition assay: 1 hour at 37° C. with various concentrations of compound [0.01 nM-10 μM] followed by 30 min incubation at 37° C. with 4 nM of NDP-α-MSH (Sigma) or for agonist assay: 1 hour at 37° C. with various concentrations of compound [0.01 nM-10 μM]. 10,000 cells were transferred in 384-well plates, lysed and incubated with cAMP labeled with the dye d2 and anti-cAMP M-Antibody labeled with Cryptate following the manufacturer's protocol.
Reading of HTRF signal was performed on Artemis TR-FRET plate reader (Cosmo Bio).
All curve fitting was conducted using non-linear regression analyses from PRISM (version 4.0c, GraphPad Inc.) and the determination of Rmax and EC50 or IC50 parameters were obtained from sigmoidal dose-response phase (variable slope) equation.
A cDNA encoding a wild-type human MC4R with a 3 tandem copies of Hemaglutinine (HA) epitote sequence from UMR cDNA resource center was modified using known techniques in the art (e.g., PCR, cloning) to fused in frame at the C-terminal a venus-Yellow Fluorescent Protein (YFP) cDNA.
The resultant cDNA was then subcloned in eukaryotic expression vector, e.g. pcDNA 3.1(+) (Invitrogen).
The double tagged WT-hMC4R was transfected in HEK293T cells with lipofectamine (Invitrogen) following the manufacturer's instructions and permanently transfected clonal cell lines were selected by resistance to the neomycin analog G418.
HEK293T stable cell line expressing wild-type human melanocortin 4 receptor (WT-hMC4R) containing an N-terminal 3xHA epitope tag and an intracellular C-terminal venus-yellow fluorescent protein (v-YFP) were maintained at 37° C. in humidified air containing 5% CO2 in Dulbecoo's modified Eagle's medium (DMEM) supplemented with 10% fetal bovine serum (FBS), 100 U/ml penicillin/streptomycin (DMEM complete/10% FBS). Cells were generally at 70%-80% confluence on the day of assay.
The compound `CCCCCN(CCCCC)C(=O)c1ccn2nc(-c3ccc(F)cc3)c(/C=C/CN3CCCCC3)c2c1` [Example 53] returned a 50% inhibitory concentration (IC50) of 1 to 5 µM. Compound `COc1cc(OC)cc(-c2nn3ccc(C(=O)N(CCC(C)C)CCC(C)C)cc3c2/C=C/CN2CCCCC2)c1` [Example 84] yielded an IC50 below 0.5 µM. `COc1ccc(-c2nn3ccc(C(=O)N(CCC(C)C)CCC(C)C)cc3c2CCCN2CCC2)cc1` [Example 156] came in with a concentration for half-maximal inhibition (IC50) of 1 to 5 µM. `CC(C)CCN(CCC(C)C)C(=O)c1ccn2nc(-c3ccc(OCc4ccccc4)cc3)c(/C=C/CN3CCCCC3)c2c1` [Example 76]: the IC50 was in the range of 1 to 5 µM.

In turn, `CCCCCN(CCCCC)C(=O)c1ccn2nc(-c3ccc(OC)cc3)c(/C=C/CN3CCCCC3)c2c1` [Example 19] registered a half-maximal inhibitory concentration (IC50) of 1 to 5 µM. `CNCCCc1c(-c2ccc(OC)cc2)nn2ccc(C(=O)N(CCC(C)C)CCC(C)C)cc12` [Example 157] yielded an IC50 of 5 to 15 µM. For the compound `CC(C)CCN(CCC(C)C)C(=O)c1ccn2nc(-c3ccc(C#N)cc3)c(CCCN3CCCCC3)c2c1` [Example 96], the IC50 is below 0.5 µM. For the compound `CCCCN(CCCC)C(=O)c1ccn2nc(-c3ccc(C(C)(C)C)cc3)c(/C=C/CN3CCCCC3)c2c1` [Example 7], the concentration for half-maximal inhibition (IC50) was in the range of 5 to 15 µM. For the compound `CCCCN(CCCC)C(=O)c1ccn2nc(-c3ccc(C)cc3)c(CCCN3CCCCC3)c2c1` [Example 60], the IC50 was in the range of 0.5 to 1 µM. In turn, `CC(C)CCN(CCC(C)C)C(=O)c1ccn2nc(-c3ccc(C(C)O)cc3)c(CCCN3CCOCC3)c2c1` (stereo not shown) [Example 118] registered an IC50 of 1 to 5 µM.

Turning to `COc1ccc(-c2nn3ccc(C(=O)N(CCC(C)C)CCC(C)C)cc3c2/C=C/CN(C)C)cc1` [Example 17], the IC50 lay within 5 to 15 µM. As to `COc1ccc(-c2nn3ccc(C(=O)N(CCC(C)C)CCC(C)C)cc3c2/C=C/CN2CCCCC2)cc1OC` [Example 14], the IC50 is below 0.5 µM.

`CC(C)CCN(CCC(C)C)C(=O)c1ccn2nc(-c3ccc(-c4noc(Cc5ccc(F)cc5)n4)cc3)c(CCCN3CCCCC3)c2c1` [Example 140] displayed an IC50 of 5 to 15 µM.

As for `CCOc1ccc(-c2nn3ccc(C(=O)N(CCC(C)C)CCC(C)C)cc3c2CCCN2CCOCC2)cc1` [Example 166], the IC50 is 1 to 5 µM.

On to `COc1cccc(-c2nn3ccc(C(=O)N(CCC(C)C)CCC(C)C)cc3c2CCCN2CCCCC2)c1` [Example 15], for which the IC50 is below 0.5 µM. The compound `COc1ccc(NC(=O)c2nn3ccc(C(=O)N(CCC(C)C)CCC(C)C)cc3c2/C=C/CN2CCCCC2)cc1` [Example 117] displayed a half-maximal inhibitory concentration (IC50) of 1 to 5 µM. The compound `CC(C)CCN(CCC(C)C)C(=O)c1ccn2nc(-c3ccc(C(=O)O)cc3)c(CCCN3CCCCC3)c2c1` [Example 75] returned an IC50 of 1 to 5 µM. Compound `Cc1ccc(-c2nn3ccc(C(=O)N(CCC(C)C)CCC(C)C)cc3c2/C=C/CN2CCCCC2)cc1` [Example 64] came in with an IC50 below 0.5 µM. The compound `CC(C)CCN(CCC(C)C)C(=O)c1ccn2nc(-c3ccc(C(=O)O)cc3)c(/C=C/CN3CCCCC3)c2c1` [Example 24] returned a concentration for half-maximal inhibition (IC50) of 1 to 5 µM. With `COc1ccc(-c2nn3ccc(C(=O)N(CCC(C)C)CCC(C)C)nc3c2/C=C/CN2CCCC2)cc1` [Example 99] the figure was 1 to 5 µM; with `CC(C)CCN(CCC(C)C)C(=O)c1ccn2nc(-c3ccccc3Br)c(/C=C/CN3CCCCC3)c2c1` [Example 34], 1 to 5 µM.

The compound `CC(C)CCN(CCC(C)C)C(=O)c1ccn2nc(-c3ccc(O)cc3)c(CCCN3CCCCC3)c2c1` [Example 78] displayed a concentration for half-maximal inhibition (IC50) below 0.5 µM. As to `CC(C)CCN(CCC(C)C)C(=O)c1ccn2nc(-c3ccc(Br)cc3)c(CCCN3CCCCC3)c2c1` [Example 45], the IC50 is below 0.5 µM. Regarding `COc1ccc(-c2nn3ccc(C(=O)N(CCC(C)C)CCC(C)C)cc3c2/C=C/CN2CCCC(F)C2)cc1` (stereo not shown) [Example 158], the concentration for half-maximal inhibition (IC50) lay in the range of 1 to 5 µM.

On to `CCCCN(CCCC)C(=O)c1ccn2nc(-c3ccc(OC)cc3)c(CCCN3CCCCC3)c2c1` [Example 1, N,N-Dibutyl-2-(4-methoxyphenyl)-3-(3-(piperidin-1-yl)propyl)pyrazolo[1,5-a]pyridine-5-carboxamide], for which the IC50 is 1 to 5 µM. As to `CC(C)CCN(CCC(C)C)C(=O)c1ccn2nc(-c3cccc(Br)c3)c(/C=C/CN3CCCCC3)c2c1` [Example 28], the IC50 lay in the range of 1 to 5 µM. Compound `CC(C)CCN(CCC(C)C)C(=O)c1ccn2nc(-c3ccc(F)cc3)c(CCCN3CCCCC3)c2c1` [Example 49] showed a half-inhibitory concentration (IC50) below 0.5 µM. Next, `CCCCCN(CCCCC)C(=O)c1ccn2nc(-c3ccc(F)cc3)c(CCCN3CCCCC3)c2c1` [Example 50]: 1 to 5 µM; `COc1ccc(-c2nn3ccc(C(=O)N(CCC(C)C)CCC(C)C)cc3c2CCCN(C)C)cc1` [Example 18]: 5 to 15 µM. Next, `COc1ccc(-c2nn3ccc(C(=O)N(CCC(C)C)CCC(C)C)nc3c2CCCN2CCCC2)cc1` [Example 104]: 5 to 15 µM. With `CC(C)CCN(CCC(C)C)C(=O)c1ccn2nc(-c3ccc(-c4noc(=O)[nH]4)cc3)c(CCCN3CCCCC3)c2c1` [Example 103], the 50% inhibitory concentration (IC50) was 0.5 to 1 µM.

The compound `CCOc1ccc(-c2nn3ccc(C(=O)N(CCC(C)C)CCC(C)C)cc3c2CCCN2CCC(F)(F)CC2)cc1` [Example 80] had an IC50 of 5 to 15 µM. With `CCCCCN(CCCCC)C(=O)c1ccn2nc(-c3ccc(C)cc3)c(CCCN3CCCCC3)c2c1` [Example 62], the 50% inhibitory concentration (IC50) was 1 to 5 µM. For `COc1ccc(-c2nn3ccc(C(=O)N(CCC(C)C)CCC(C)C)cc3c2/C=C/CN2CCCCC2)cc1` [Example 3], the IC50 is 0.5 to 1 µM. In the case of `CC(C)CCN(CCC(C)C)C(=N)c1ccn2nc(-c3ccccc3)c(CCCN3CCCCC3)c2c1` [Example 127], the IC50 is 0.5 to 1 µM. Turning to `CCCCN(CCCC)C(=O)c1ccn2nc(-c3ccc(F)cc3)c(CCCN3CCCCC3)c2c1` [Example 48], the IC50 fell in the range of 0.5 to 1 µM. `CCCCN(C/C=C/c1c(-c2ccc(OC)cc2)nn2ccc(C(=O)N(CCCC)CCCC)cc12)CCCC` [Example 110] came in with a 50% inhibitory concentration (IC50) of 5 to 15 µM. Take `CC(=O)c1ccc(-c2nn3ccc(C(=O)N(CCC(C)C)CCC(C)C)cc3c2CCCN2CCOCC2)cc1` [Example 121]: the half-maximal inhibitory concentration (IC50) fell in the range of 1 to 5 µM. Next, `CCCCN(CCCC)C(=O)c1ccn2nc(-c3ccccc3)c(CCCN3CCCCC3)c2c1` [Example 54]: 0.5 to 1 µM.

The compound `CCOc1ccc(-c2nn3ccc(C(=O)N(CCC(C)C)CCC(C)C)cc3c2/C=C/CN2CCCCC2)cc1` [Example 20] showed an IC50 of 1 to 5 µM. With `CCOc1ccc(-c2nn3ccc(C(=O)N(CCC(C)C)CCC(C)C)cc3c2CCCN2CCC(C(F)(F)F)CC2)cc1` [Example 82] the figure was 5 to 15 µM; with `CC(C)CCN(CCC(C)C)C(=O)c1ccn2nc(C(=O)N3CCOCC3)c(CCCN3CCCCC3)c2c1` [Example 141, N,N-diisopentyl-2-(morpholine-4-carbonyl)-3-(3-(piperidin-1-yl)propyl)pyrazolo[1,5-a]pyridine-5-carboxamide], 5 to 15 µM. With `COc1ccc(Nc2nn3ccc(C(=O)N(CCC(C)C)CCC(C)C)cc3c2CCCN2CCCCC2)cc1` [Example 142, N,N-diisopentyl-2-((4-methoxyphenyl)amino)-3-(3-(piperidin-1-yl)propyl)pyrazolo[1,5-a]pyridine-5-carboxamide] the figure was below 0.5 µM; with `CC(C)CCN(CCC(C)C)C(=O)c1ccn2nc(-c3ccc(Cl)cc3)c(CCCN3CCCCC3)c2c1` [Example 11, 2-(4-Chlorophenyl)-N,N-diisopentyl-3-(3-(piperidin-1-yl)propyl)pyrazolo[1,5-a]pyridine-5-carboxamide], 1 to 5 µM. `CC(C)CCN(CCC(C)C)C(=O)c1ccn2nc(-c3ccc(-c4noc(-c5ccncc5)n4)cc3)c(CCCN3CCCCC3)c2c1` [Example 139] came in with an IC50 below 0.5 µM.

`CC(C)CCN(CCC(C)C)C(=O)c1ccn2nc(-c3cccc(Cl)c3)c(/C=C/CN3CCCCC3)c2c1` [Example 72, (E)-2-(3-chlorophenyl)-N,N-diisopentyl-3-(3-(piperidin-1-yl)prop-1-en-1-yl)pyrazolo[1,5-a]pyridine-5-carboxamide] returned an IC50 of 0.5 to 1 µM. `COc1ccc(-c2nn3ccc(C(=O)N(CCC(C)C)CCC(C)C)cc3c2/C=C/CNCc2ccccc2)cc1` [Example 150] yielded an IC50 of 5 to 15 µM. For `CC(C)CCN(CCC(C)C)Cc1ccn2nc(-c3ccccc3)c(CCCN3CCCCC3)c2c1` [Example 144], the IC50 lay in the range of 5 to 15 µM. `COC(=O)c1ccc(-c2nn3ccc(C(=O)N(CCC(C)C)CCC(C)C)cc3c2CCCN2CCCCC2)cc1` [Example 44] registered a half-maximal inhibitory concentration (IC50) of 0.5 to 1 µM.
